Measured values: ChEMBL document CHEMBL1128869, “-Mercaptoacyl dipeptides that inhibit angiotensin converting enzyme and neutral endopeptidase 24.11” (Bioorg Med Chem Lett, 1995)

Assays:
Neprilysin = biological target: T1, Neprilysin (Rattus norvegicus, UniProt P07861); assay: Inhibition of neutral endopeptidase (NEP) 24.11
T1 sequence (P07861 whole entry): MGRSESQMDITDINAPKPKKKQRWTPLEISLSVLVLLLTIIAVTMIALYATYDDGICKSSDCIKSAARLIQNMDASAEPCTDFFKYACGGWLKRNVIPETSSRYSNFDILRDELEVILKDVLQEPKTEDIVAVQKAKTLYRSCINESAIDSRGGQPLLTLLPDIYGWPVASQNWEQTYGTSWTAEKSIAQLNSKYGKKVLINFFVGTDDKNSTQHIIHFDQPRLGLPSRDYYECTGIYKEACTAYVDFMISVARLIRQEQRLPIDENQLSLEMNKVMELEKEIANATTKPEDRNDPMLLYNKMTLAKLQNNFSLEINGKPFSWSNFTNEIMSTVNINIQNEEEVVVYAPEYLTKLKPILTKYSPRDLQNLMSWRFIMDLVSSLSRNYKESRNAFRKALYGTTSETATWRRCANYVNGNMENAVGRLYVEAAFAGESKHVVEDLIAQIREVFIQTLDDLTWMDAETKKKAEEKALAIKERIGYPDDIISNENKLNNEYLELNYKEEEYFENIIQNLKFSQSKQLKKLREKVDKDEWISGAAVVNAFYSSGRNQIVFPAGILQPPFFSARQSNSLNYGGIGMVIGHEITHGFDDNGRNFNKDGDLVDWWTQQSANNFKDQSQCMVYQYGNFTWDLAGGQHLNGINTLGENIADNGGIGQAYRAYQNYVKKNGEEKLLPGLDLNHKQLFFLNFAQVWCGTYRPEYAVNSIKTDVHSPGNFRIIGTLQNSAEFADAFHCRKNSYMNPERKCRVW

[1] = biological target: Angiotensin-converting enzyme (Homo sapiens, UniProt P12821); assay: Inhibition of angiotensin converting enzyme (ACE); assay type: protein assay
Rattus norvegicus [2] = species: Rattus norvegicus; assay: Concentration that causes inhibition of angiotensin-I (AI) induced pressor response in normotensive rats after intra arterial injection; assay type: functional
Rattus norvegicus [3] = species: Rattus norvegicus; assay: Time taken for 50 % or more inhibition of angiotensin-I (AI) induced pressor response in normotensive rats; assay type: functional
Rattus norvegicus [4] = species: Rattus norvegicus; assay: Compound concentration that causes inhibition of angiotensin-I (AI) induced pressor response in normotensive rats after intra arterial injection; assay type: functional

In the case of `CC(C)[C@H](S)C(=O)N[C@@H](Cc1ccc(-c2ccccc2)cc1)C(=O)N[C@@H](Cc1ccc(O)cc1)C(=O)O`, the IC50 (Neprilysin) is reported as 28 nM, the IC50 [1] is reported as 62 nM and the Inhibition (Rattus norvegicus [2]) is reported as 10 mg/kg. For the same compound, the Duration of action (Rattus norvegicus [3]) was 60 min.
`O=C(N[C@@H](Cc1ccc(-c2ccccc2)cc1)C(=O)N1CCC[C@H]1C(=O)O)[C@H](S)Cc1ccccc1` was tested, and the IC50 (Neprilysin) was 59 nM and the IC50 [1] was 229 nM.
`O=C(N[C@@H](Cc1ccc(-c2ccccc2)cc1)C(=O)N1CCC[C@H]1C(=O)O)[C@H](S)c1ccc2c(c1)OCO2` showed an IC50 (Neprilysin) of 222 nM and an IC50 [1] of 378 nM.
`O=C(N[C@@H](Cc1ccc(-c2ccccc2)cc1)C(=O)O)[C@H](S)Cc1ccccc1` was tested, and the IC50 (Neprilysin) was 100 nM and the IC50 [1] was 688 nM.
Compound `O=C(N[C@@H](Cc1ccc2ccccc2c1)C(=O)N1CCC[C@H]1C(=O)O)[C@H](S)Cc1ccccc1` has an IC50 (Neprilysin) of 583 nM and an IC50 [1] of 304 nM.
For `CC(C)[C@H](S)C(=O)N[C@@H](Cc1ccc(-c2ccccc2)cc1)C(=O)N1CCC[C@H]1C(=O)O`, the IC50 (Neprilysin) was 500 nM and the IC50 [1] was 319 nM.
For `CC(C)[C@H](S)C(=O)N[C@@H](Cc1ccc(-c2ccccc2)cc1)C(=O)N[C@@H](CO)C(=O)O`, the IC50 (Neprilysin) was 43 nM and the IC50 [1] was 100 nM.
`O=C(N[C@@H](Cc1ccc(-c2ccccc2)cc1)C(=O)N1CCC[C@H]1C(=O)O)[C@@H](S)c1ccc2c(c1)OCO2` was tested, and the IC50 (Neprilysin) was 385 nM and the IC50 [1] was 183 nM.
With `O=C(N[C@@H](Cc1ccc(-c2ccccc2)cc1)C(=O)N1CCC[C@H]1C(=O)O)[C@@H](S)Cc1ccccc1` the IC50 (Neprilysin) was 117 nM, the IC50 [1] was 57 nM and the Inhibition (Rattus norvegicus [2]) was 10 mg/kg. It also gave a Duration of action (Rattus norvegicus [3]) of 50 min.
With `O=C(O)[C@H](Cc1ccc(-c2ccccc2)cc1)NC(=O)[C@@H](S)Cc1ccccc1` the IC50 (Neprilysin) was 654 nM and the IC50 [1] was 80 nM.
`O=C(N[C@@H](Cc1ccc2ccccc2c1)C(=O)N1CCC[C@H]1C(=O)O)[C@@H](S)Cc1ccccc1` was tested, and the IC50 (Neprilysin) was 705 nM, the IC50 [1] was 18 nM and the Inhibition (Rattus norvegicus [2]) was 10 mg/kg. For the same compound, the Duration of action (Rattus norvegicus [3]) was 25 min.
With `O=C(N[C@@H](Cc1cccc2ccccc12)C(=O)N1CCC[C@H]1C(=O)O)[C@H](S)Cc1ccccc1` the IC50 (Neprilysin) was > 1000 nM and the IC50 [1] was 27 nM.
`O=C(N[C@@H](Cc1cccc2ccccc12)C(=O)N1CCC[C@H]1C(=O)O)[C@@H](S)Cc1ccccc1` was tested, and the IC50 (Neprilysin) was > 1000 nM and the IC50 [1] was 14 nM.
For `CC(C)[C@H](S)C(=O)N[C@@H](Cc1ccc(-c2ccccc2)cc1)C(=O)N[C@H](C(=O)O)C(C)C`, the Inhibition (Rattus norvegicus [4]) was 10 mg/kg, the IC50 (Neprilysin) was 33 nM and the IC50 [1] was 175 nM. The Duration of action (Rattus norvegicus [3]) was 70 min.
